Where two headings read alike, the source gives them in different places. Where a SMILES comes first, the peptide text is derived from it. [ ]: non-standard residue; d: D form. The star is where a group is joined. Dolaproine = CO[C@@H]([C@@H]1CCCN1)[C@@H](C)C(=O)O; Dil = CC[C@H](C)[C@H](NC)[C@@H](CC(=O)O)OC; X1 = C[C@@H](N*)[C@@H](O)c1ccccc1; NMeV = CN[C@H](C(=O)O)C(C)C
Key:
[1] = test system: several cancer cell lines; details: cited from earlier work
[2] = nude mice; cited from earlier work
[3] = test system: SEM cells (human ALL cells labelled with GFP); assay: survival of CB17 SCID mice with SEM leukemia xenograft, oral treatment; assay type: in vivo; details: for survival / therapeutic activity in words: oral gavage twice weekly for two weeks, FIG. 1
Procedure: FIG. 1 is a graph showing survival of CB17 SCID mice from Charles River Laboratories International, Inc., treated with orally-administered rose bengal disodium. Exponentially-growing SEM cells (2.5×10^6 human ALL cells labelled with GFP) were injected intravenously into each animal and the establishment of tumors was monitored. After 4 weeks to permit the growth of the tumor, mice were randomized to three groups. Group 1 (n=9 control animals) received 100 μL of PBS given orally twice a week for two weeks. Group 2 (n=8 treatment Cohort I animals) received 25 μL of rose bengal disodium present at 10% w/v in 0.9% NaCl aqueous solution that was diluted in PBS to a final volume of 100 μL and given orally twice a week for 2 weeks. Group 3 (n=8 treatment Cohort II animals) received 12.5 μL of the above 10% w/v in 0.9% NaCl aqueous solution that was diluted in PBS to a final volume of 100 μL and administered orally twice a week for 2 weeks. […] Data are presented as Kaplan-Meier estimates.
Female C17 SCID mice from Charles River
The SEM cell line was initially established from a 5 year old female with B acute lymphoblastic leukemia. It carries the MLL-AFFF1 gene fusion and heterozygous for CDKN2A and TP53.
2.5×10^6 exponentially growing SEM cells [labelled with green fluorescent protein (GFP)] were injected intravenously into each animal and the establishment of tumors was monitored. After 4 weeks to permit the growth of the tumors, mice were randomized to three groups.
These animals received 100 μL of PBS given orally twice a week for two weeks.
These animals received 25 μL of PV-10® (10% rose bengal disodium w/v in 0.9 percent in aqueous saline) diluted in PBS to a final volume of 100 μL and given orally by gavage twice a week for 2 weeks.
These animals received 12.5 μL of PV-10® (as discussed above) diluted in PBS to a final volume of 100 μL and given orally by gavage twice a week for 2 weeks.
Data are presented in FIG. 1 as Kaplan-Meier estimates.

[4] = oral bioavailability, mass balance studies; assay type: in vivo; details: aqueous solution, estimated from mass balance studies
Procedure: Bioavailability of RB disodium administered in aqueous solution via the oral route appears to be limited based on mass balance studies conducted by the inventors, and can be estimated at 0.1-1 percent, corresponding to a daily systemic exposure of 0.2-2 mg/kg. Presuming this amount is distributed through the bloodstream, and that blood volume comprises approximately 10 percent of body weight, this equates to an estimated concentration of 2-20 μM RB in the blood.

[5] = oral bioavailability, radiolabel studies with 14C-RB; assay type: in vivo; details: 14C-RB in aqueous solution given orally to mice
Source text: The bioavailability of various HX compounds such as disodium rose bengal has not been well characterized. Studies commissioned by one of the assignees concluded that bioavailability of disodium rose bengal is less than (<) 1% based on radiolabel studies where ^14C-RB in aqueous solution was given orally to mice. In the stomach, with a pH value<4, an HX compound is likely to be in the lactone form.

[6] = solubility and behaviour of HX compound forms in aqueous media; assay type: physicochemical; details: solutions of disodium RB mixed in
Source text: The dibasic salt forms of the HX compounds exist in solution having a pH greater than approximately 5, whereas at pH values<5 the HX compounds spontaneously convert to their lactone form. […] Thus, optimizing formulation to properly compensate for the pH value of the GI tract is perhaps the most important parameter affecting bioavailability. For example, in the stomach, where pH value<4, dissolved HX compound is rapidly converted to the insoluble lactone form.
For example, the highly acidic gastric environment (pH 1.5-2 in the fasted state; pH 3-6 in the fed state) rises rapidly to about pH 6 in the duodenum and increases along the small intestine to pH 7.4 at the terminal ileum. The pH value in the cecum drops just below pH 6 and again rises in the colon reaching pH 6.7 at the rectum [Hua, Front Pharmacol 11:Article 524 (April 2020)].

[7] = 112 mg bolus, 60 kg adult human, 1.9 mg/kg; cited from earlier work
[8] = tolerated dose in clinical studies of PV-10; assay type: in vivo, human
Procedure: The classic intravenous (IV) diagnostic assay for liver function using RB was conducted giving 100 mg RB as a single IV dose. In clinical studies of PV-10® aqueous RB disodium solution, RB has been tolerated at 1500 mg delivered IV. The standard adult blood volume is approximately 5 L. Thus, to achieve 100 mg/L in the blood, an adult patient would need to receive approximately 500 mg of RB IV to achieve the IC50 value in the bloodstream.
In clinical studies of PV-10® aqueous RB disodium solution, RB has been tolerated at 1500 mg delivered IL.

[9] = cited from earlier work
[10] = test system: solid tumors (e.g., melanoma, hepatocellular carcinoma, breast carcinoma); details: intralesional, intratumoral RB about 25-50 mg/g tumor tissue (25-50 mM); cited from earlier work
[11] = fed ad libitum continuously for 2 years, C57BL6N mice; cited from earlier work
[12] = test system: Apc^Min colorectal tumor model; assay type: in vivo, mice
Procedure: 26, 2021. […] Presuming a daily drinking water consumption rate of approximately 2 mL/10 g body weight, this corresponds to consumption of approximately 2 mg RB/10 g (200 mg/kg).
Those Apc^min mice are understood to have thereby consumed approximately 8 mg/10 g/day=800 mg/kg/day. That amount is consistent with toxicology data showing such a dose is tolerated.

[13] = test system: pediatric solid tumors (neuroblastoma and neuroepithelioma); details: in vitro contact for 96 hours; cited from earlier work
[14] = clearance from circulation; cited from earlier work
[15] = human, in vivo; cited from earlier work
[16] = symptomatic mice, 1 mg/mL ad libitum in drinking water

CC[C@H](C)[C@@H]([C@@H](CC(=O)N1CCC[C@H]1[C@H](OC)[C@@H](C)C(=O)N[C@H](C)[C@@H](O)c1ccccc1)OC)N(C)C(=O)[C@@H](NC(=O)[C@@H](NC)C(C)C)C(C)C [monomethyl auristatin] (H-[NMeV]V[Dil][Dolaproine]-X1)
IC50 [1]: < 1 nM

Calicheamicin
LD50 [2]: 0.32 mg/kg

O=C([O-])c1c(Cl)c(Cl)c(Cl)c(Cl)c1-c1c2cc(I)c(=O)c(I)c-2oc2c(I)c([O-])c(I)cc12.[Na+].[Na+] [RB disodium, 4,5,6,7-tetrachloro-2′,4′,5′,7′-tetraiodofluorescein disodium]
survival of mice treated with lesser amounts ([3]; lesser amounts of HX compound (Cohort II, 12.5 μL PV-10), compared with the 62.5% group): much poorer survival rates | treated leukemic mice that survived for 120 days ([3]; oral gavage twice a week for 2 weeks, higher-dose group (Cohort I, 25 μL PV-10)): 62.5% | survival / therapeutic activity in words ([3]; two treatment groups): dose-dependent survival | bioavailability via the oral route [4]: 0.1-1% | bioavailability [5]: < 1% | behaviour in water solution having the pH value of the human stomach [6]: rapid clouding of the admixture and clumping

O=C1OC2(c3cc(I)c(O)c(I)c3Oc3c2cc(I)c(O)c3I)c2c(Cl)c(Cl)c(Cl)c(Cl)c21 [RB, 4,5,6,7-tetrachloro-2′,4′,5′,7′-tetraiodofluorescein]
morbidity after IV bolus [7]: not reported to yield morbidity | dose tolerated ([8]; delivered IL): 1500 mg | dose tolerated ([8]; delivered IV): 1500 mg | pKa value [9]: 2.52 | pKa value ([9]; second value): 1.81 | estimated RB in the blood ([3]; assuming 1% bioavailability, intestinal transit 6 hours, blood volume 10 percent of body weight, two treatment groups): 125 to 250 µM | survival / therapeutic activity in words ([3]; two treatment groups): therapeutic activity was observed | time until acute tumor cytotoxicity is evident [10]: ≤ 30 min | dose well tolerated [11]: 970 mg/kg/day | effect on onset of disease ([12]; 4 mg/mL ad libitum in drinking water (about 800 mg/kg/day)): arrested onset of disease | estimated concentration of RB in the blood ([12]; mouse, in vivo): 2 to 20 µM | increase in mean survival relative to untreated mice [12, 16]: ~38% | mean survival [12, 16]: 12.3±0.5 weeks | concentrations demonstrating cytotoxicity [13]: 50 to 100 µM | circulatory half-time (t1/2) [14]: about 30 minutes

ipilimumab: anti-CTLA-4 monoclonal antibody, immune checkpoint inhibitor
terminal t1/2 [15]: 15.4 days
